This is an account of results in PMC9967152 (International Journal of Molecular Sciences, 2023).

“Also recorded” adds a separate entry of the source. Where a SMILES comes first, the peptide text is derived from it. [ ]: non-standard residue; d: D form. The star is where a group is joined. Daunorubicin(13-NOCH2CO) = COc1cccc2c1C(=O)c1c(O)c3c(c(O)c1C2=O)C[C@@](O)(C(C)=NOCC(=O)*)C[C@@H]3O[C@H]1C[C@H](N)[C@H](O)[C@H](C)O1; Sta = CC(C)C[C@H](N)[C@@H](O)CC(=O)O; Nle = CCCC[C@H](N)C(=O)O; Aib = CC(C)(N)C(=O)O; βAla = NCCC(=O)O

By IC50 is commonly meant the concentration that gives 50% inhibition. A higher IC50 goes with a need for much substance.

The nature of one data set: incomplete DMEM. As to conditions: 37 °C, up to 3 h.
The nature of data set [1]: rat liver lysosomal homogenate. As to conditions: male Wistar rats, 37 °C, up to 72 h.
The next data set is described as follows: mouse plasma. The following applies: 37 °C, up to 24 h.
Data set [2] has as its system PC-3 human prostatic adenocarcinoma xenograft in NOD-SCID mice. The experiment in a line: In vivo tumour growth inhibition, subcutaneous PC-3 xenograft. Also on record: species or system mouse. The following applies: 10 mg/kg on Dau content i.p. every 5th day, n = 8. The procedure: The testing of the antitumour conjugates was carried out in a murine xenograft model. It was established by inoculating subcutaneously 100 µL of cell suspension of PC-3 prostate cancer cells with a concentration of 2 × 10^7 cells/mL.
Once the tumour volume reached 60 mm^3, mice were randomised and assigned to different groups for each treatment, respectively 0.9% saline as control, free daunorubicin, L5, and L6. Each group consisted of eight mice. Peptide–drug conjugates were injected intraperitoneally every 5th day, five times in total (daunorubicin dosage of 10 mg/kg for each treatment). In the case of free daunorubicin, two treatments were administered at the same time points as the first two treatments with conjugates, with a dosage of 1 mg/kg, the maximum tolerated dose (MTD). Weight and tumour size of mice were monitored throughout the whole experiment, two times per week. On day 33, mice were euthanized, and primary tumour, heart, lung, liver and spleen were harvested and stored in 4% formalin (Molar Chemicals, Halásztelek, Hungary). After 2–3 days of incubation in formalin, tissue samples were examined macroscopically. Organs and primary tumours from the different treatment groups were weighed and inspected under a stereomicroscope to see any occurrent changes in morphology compared to the controls.

Data set [3] is described as follows: Stability in mouse plasma. Format: in vitro ADME. As to conditions: 37 °C, HPLC-MS. How it is done: Due to their low IC50 values and internalisation on the tested cell lines, conjugates L1, L5 and L6 were chosen for investigation of their stability in mouse plasma, as potential candidates for in vivo studies. They were incubated at a concentration of 10 µM, with mouse plasma for 24 h at 37 °C. Samples were collected at 0 h, 30 min, 1 h, 2 h, 4 h, 8 h and 24 h and analysed by HPLC-MS. […] Furthermore, after 2 h, L1 starts to release the toxic metabolite Dau=Aoa-Leu-OH, whereas this happens only after 24 h for L5 and L6, in a considerably low amount (see Supplementary Materials, Figures S18–S20).
The conjugates were dissolved in ddH2O containing 10% DMSO (stock solution: 100 μM) and diluted with mouse plasma to a final concentration of 10 μM. The mixture was incubated and stirred at 37 °C, 600 rpm, and 30 µL aliquots were collected after 0 min, 0.5, 1, 2, 4, 8 and 24 h, in triplicates. Then, to each plasma sample, 90 µL of 0.1% formic acid containing MeCN was added, and the samples were frozen at −25 °C for ≥30 min to aid protein precipitation. Large plasma proteins were removed by centrifugation (15 min, 5000× g, 4 °C). Aliquots of 50 µL supernatant were diluted with an equal volume of ddH2O + 0.1% formic acid and analysed by LC–MS. Control measurements were performed in the same manner (10 μM bioconjugate in 100% ddH2O).

Data set [4] can be described thus: Stability in incomplete (serum-free) DMEM. Type of data set: in vitro ADME. The following applies: 25 µM, 37 °C, 600 rpm, LC–MS, n = 2. The procedure:
The conjugates were incubated in incomplete DMEM for 3 h (similarly to the internalisation studies) or in 2.5% FBS containing DMEM for 24 h (conditions for the MTT assay). […] No significant loss of L1 and L5 (<20%) or L6 (<30%) was observed after 3 h (see Supplementary Materials, Figure S17).
DMSO stock solutions of the conjugates (2.5 mM) were diluted in DMEM free from or containing 2.5% FBS, to a final concentration of 25 μM. The mixture was incubated and stirred at 37 °C, 600 rpm, and 30 µL aliquots were collected after 0 min, 0.5, 1, 2, 4, 8 and 24 h, in duplicates. Then, to each sample, 90 µL of 0.1% formic acid containing MeCN was added and the samples were frozen at −25 °C for ≥30 min to aid protein precipitation. Large FBS components were removed by centrifugation (15 min, 5000 g, 4 °C). Aliquots of 50 µL supernatant were diluted with an equal volume of ddH2O + 0.1% formic acid and analysed by LC–MS. Control measurements were performed in the same manner (25 μM bioconjugate in 100% ddH2O).

For the next data set, the system named is healthy NOD-SCID mice. The data set is described as follows: In vivo chronic toxicity study in healthy mice. Also on record: species or system mouse. As to conditions: 20 mg/kg calculated on Dau content, every 5th day, four treatments, n = 3. The procedure: Based on the stability assay performed in murine plasma, we decided to investigate L5 and L6 in vivo. To determine the dosage for the tumour growth inhibition experiment, we performed a chronic toxicity study using healthy mice. PDCs were administered every 5th day in three different doses calculated on the Dau content: 5 mg/kg, 10 mg/kg, and 20 mg/kg (Figure 4A). […] When 10 mg/kg drug was applied, the fitness of mice was not affected more than that of mice that received 5 mg/kg.
The toxicity experiments were done in healthy NOD-SCID mice. Treatments were administered every 5th day. Three different concentrations were tested, 5 mg/kg, 10 mg/kg and 20 mg/kg, respectively. Each group consisted of three mice. Mouse weight was monitored five times per week.

Data set [5] has as its system PC-3 human prostate adenocarcinoma cells. The data set is described as follows: MTT assay, in vitro cytostatic effect. Format: cell-based. The following applies: 24 h treatment at 3.125–25 µM, then cultured up to 72 h, mean ± SD, n = 2 independent experiments with four parallels. How it is done: (§1) Cells were distributed into 96-well tissue culture plates with an initial cell number of 5.0 × 10^3 per well. After 24 h incubation at 37 °C, the cells were treated with the compounds in 200 µL final volume containing 1.0 v/v% DMSO and 10% H2O. […] After incubation, the cells were washed twice with a serum-free medium. To determine the in vitro cytostatic effect, the cells were further cultured up to 72 h in a 10% serum-containing medium. A solution of 3-(4,5-dimethylthiazol-2-yl)-2,5-diphenyltetrazolium bromide and MTT-solution, (45 µL, 2 mg/mL, final concentration: […]) were added to each well. The respiratory chain [67] and other electron transport systems reduce MTT, and thereby form non-water-soluble violet formazan crystals within the cell. […] After 3 h of incubation, the cells were centrifuged for 5 min at 1000 g and the supernatant was removed. The obtained formazan crystals were dissolved in DMSO (100 μL) and the optical density (OD) of the samples was measured at λ = 540 and 620 nm, respectively, using ELISA Reader (iEMS Reader, Labsystems, Finland). OD620 values were subtracted from OD540 values. The percentage of cytostasis was calculated by using the following equation:Cytostatic effect (%) = [1 − (ODtreated/ODcontrol)] × 100(1)
(§2) Values of ODtreated and ODcontrol correspond to the optical densities of the treated and the control cells, respectively. In each case, two independent experiments were carried out with four parallel measurements. The 50% inhibitory concentration (IC50) values were determined from the dose–response curves. The curves were defined using Microcal™ Origin 2018 software: cytostasis was plotted as a function of concentration, fitted to a sigmoidal curve, and based on this curve, the half-maximal inhibitory concentration (IC50) value was determined. IC50 represents the concentration of a compound that is required for 50% inhibition in vitro and is expressed in micromolar units.
A general note: Formazan colour is commonly taken as a measure of viable cells.

Data set [6] concerns MDA-MB-231 human breast adenocarcinoma cells. The data set is described as follows: MTT assay, in vitro cytostatic effect. The following applies: 24 h treatment at 3.125–25 µM, then cultured up to 72 h, mean ± SD, n = 2 independent experiments with four parallels. Type of data set: cell-based. The procedure: as §1, §2
The test system of data set [7] is MDA-MB-453 human metastatic epithelial breast carcinoma cells. The experiment in a line: MTT assay, in vitro cytostatic effect. Type of data set: cell-based. As to conditions: 24 h treatment at 3.125–25 µM, then cultured up to 72 h, mean ± SD, n = 2 independent experiments with four parallels. How it is done:
as §1, §2

On to Dau=Aoa-LRRY-QWAVGHL-Nle, for which the not cleaved entry in “incomplete DMEM” is recorded as “highly stable for 1.5 h; no significant loss (<20%) after 3 h”. Besides, in data set [1], the cleaved bond result was “Leu-Arg, 15 min” and the fragment found result is “Dau=Aoa-LR-OH; also recorded: Dau=Aoa-LRR-OH”. For the same compound, the fragment found result in the data set “mouse plasma” is reported as “Dau=Aoa-Leu-OH (M1), minor, 2 h”.

As for Dau=Aoa-LRRY-fQWAV-β-Ala-H-Aib-Nle, in data set [1], the cleaved bond result is “Leu-Arg, 15 min” and the fragment found entry is given as “Dau=Aoa-LR-OH; also recorded: H2N-RY-fQWAV-β-Ala-H-Aib-Nle-NH2; also recorded: H2N-Y-fQWAV-β-Ala-H-Aib-Nle-NH2; also recorded: H2N-RY-fQW-OH”.

With `CCCC[C@H](NC(=O)C(C)(C)NC(=O)[C@H](Cc1c[nH]cn1)NC(=O)CCNC(=O)[C@@H](NC(=O)[C@H](C)NC(=O)[C@H](Cc1c[nH]c2ccccc12)NC(=O)[C@H](CCC(N)=O)NC(=O)[C@@H](Cc1ccccc1)NC(=O)[C@H](Cc1ccc(O)cc1)NC(=O)[C@H](CCCNC(=N)N)NC(=O)[C@H](CCCNC(=N)N)NC(=O)[C@H](CC(C)C)NC(=O)CON=C(C)[C@]1(O)Cc2c(O)c3c(c(O)c2[C@@H](O[C@H]2C[C@H](N)[C@H](O)[C@H](C)O2)C1)C(=O)c1c(OC)cccc1C3=O)C(C)C)C(N)=O` ({Daunorubicin(13-NOCH2CO)}-LRRY[dF]QWAV[βAla]H[Aib][Nle]-NH2), the time to release of active metabolite Dau=Aoa-Leu-OH was less than 30 min.

With `CCCC[C@H](NC(=O)C[C@H](O)[C@H](CC(C)C)NC(=O)[C@H](Cc1c[nH]cn1)NC(=O)CCNC(=O)[C@@H](NC(=O)[C@H](C)NC(=O)[C@H](Cc1c[nH]c2ccccc12)NC(=O)[C@H](CCC(N)=O)NC(=O)[C@@H](Cc1ccccc1)NC(=O)[C@H](Cc1ccc(O)cc1)NC(=O)[C@H](CCCNC(=N)N)NC(=O)[C@H](CCCNC(=N)N)NC(=O)[C@H](CC(C)C)NC(=O)CON=C(C)[C@]1(O)Cc2c(O)c3c(c(O)c2[C@@H](O[C@H]2C[C@H](N)[C@H](O)[C@H](C)O2)C1)C(=O)c1c(OC)cccc1C3=O)C(C)C)C(N)=O` [L6, (Dau=Aoa)-LRRY-BBN[D-Phe6, β-Ala11, Sta13, Nle14]] ({Daunorubicin(13-NOCH2CO)}-LRRY[dF]QWAV[βAla]H[Sta][Nle]-NH2), in [2], the “Toxicity during the tumour growth inhibition experiment” value is “lower toxicity compared to free daunorubicin”. Besides, in data set [3] (10 µM, for L5 and L6 in a considerably low amount), the “Time after which release of the toxic metabolite Dau=Aoa-Leu-OH starts” value came to 24 h. In data set [3] (600 rpm, n = 3, read-out: Intact conjugate after one day (24 h)), the remaining at 24 h, 10 μM is more than 80%. Besides, the “Loss of conjugate after 3 h” value in data set [4] is on record as less than 30%. The “Decrease in mouse weight” value with healthy NOD-SCID mice is on record as 10–15%.

With Dau=Aoa-LRRY-fQWAV-β-Ala-H-Sta-Nle, the not cleaved entry in the data set “incomplete DMEM” is on record as “highly stable for 1.5 h; no significant loss (<30%) after 3 h”. In addition, in data set [1], the cleaved bond result was “Leu-Arg, 15 min” and the fragment found result was “Dau=Aoa-LR-OH; also recorded: H2N-RY-fQWAV-βAla-H-Sta-Nle-NH2; also recorded: H2N-Y-fQWAV-βAla-H-Sta-Nle-NH2; also recorded: H2N-RY-fQW-OH”. Besides, the fragment found entry in the data set “mouse plasma” is recorded as “Dau=Aoa-Leu-OH (M1), minor, 24 h”.

Take Dau=Aoa-LRRY-fQWAVGH-Sta-L: in the data set “incomplete DMEM”, the not cleaved result is listed as “highly stable for 1.5 h; no significant loss (<20%) after 3 h”. For the same compound, in [1], the cleaved bond result is given as “Leu-Arg, 15 min” and the fragment found result is listed as “Dau=Aoa-LR-OH; also recorded: H2N-RY-fQWAVGH-Sta-L-NH2; also recorded: H2N-VGH-Sta-L-NH2; also recorded: H2N-GH-Sta-L-NH2; also recorded: H2N-RY-fQW-OH; also recorded: H2N-RYfQ-OH”. Further, in the data set “mouse plasma”, the fragment found entry was “Dau=Aoa-Leu-OH (M1), minor, 24 h”.

For the compound `CCCC[C@H](NC(=O)C[C@H](O)[C@H](CC(C)C)NC(=O)[C@H](Cc1c[nH]cn1)NC(=O)CCNC(=O)[C@@H](NC(=O)[C@H](C)NC(=O)[C@H](Cc1c[nH]c2ccccc12)NC(=O)[C@H](CCC(N)=O)NC(=O)[C@@H](Cc1ccccc1)NC(C)=O)C(C)C)C(N)=O` [FP2] (Ac-[dF]QWAV[βAla]H[Sta][Nle]-NH2), the IC50 in data set [5], in data set [6] and in data set [7] was more than 100 µM throughout.

Consider `CC(=O)N[C@H](Cc1ccccc1)C(=O)N[C@@H](CCC(N)=O)C(=O)N[C@@H](Cc1c[nH]c2ccccc12)C(=O)N[C@@H](C)C(=O)N[C@H](C(=O)NCC(=O)N[C@@H](Cc1c[nH]cn1)C(=O)N[C@@H](CC(C)C)[C@@H](O)CC(=O)N[C@@H](CC(C)C)C(N)=O)C(C)C` [FP1], for which the half-maximal inhibitory concentration (IC50) in data set [5], in data set [6] and in data set [7] was more than 100 µM in each case.
